Data reported in patent publication US20260132132A1, “3A,4,5,6-TETRAHYDRO-1 H-PYRAZOLO[3,4-C]PYRIDIN-7(7AH)-ONE DERIVATIVES AS FACTOR XIIA INHIBITORS” (KALVISTA PHARMACEUTICALS LIMITED, priority 2022, published 2026).

Legend:
[1] = biological target: T1, Human Factor XIIa (hFXIIa) (Homo sapiens, UniProt P00748); assay: Determination of Human Factor XIIa (hFXIIa) inhibition, fluorogenic substrate IC50 assay; type: biochemical; conditions: fluorogenic substrate H-DPro-Phe-Arg-AFC at Km, 25° C., read-out: Human FXIIa IC50
T1 construct: purchased Enzyme Research Laboratories
T1 sequence (P00748 373-615 limits assumed): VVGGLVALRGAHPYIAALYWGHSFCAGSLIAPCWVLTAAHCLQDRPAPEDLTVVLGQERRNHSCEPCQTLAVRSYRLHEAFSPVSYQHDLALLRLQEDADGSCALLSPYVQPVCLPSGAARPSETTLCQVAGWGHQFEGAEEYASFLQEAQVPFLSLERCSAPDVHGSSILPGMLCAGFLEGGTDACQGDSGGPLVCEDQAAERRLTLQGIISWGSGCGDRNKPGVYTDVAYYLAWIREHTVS
T1 sequence (P00748 20-372 partner limits assumed): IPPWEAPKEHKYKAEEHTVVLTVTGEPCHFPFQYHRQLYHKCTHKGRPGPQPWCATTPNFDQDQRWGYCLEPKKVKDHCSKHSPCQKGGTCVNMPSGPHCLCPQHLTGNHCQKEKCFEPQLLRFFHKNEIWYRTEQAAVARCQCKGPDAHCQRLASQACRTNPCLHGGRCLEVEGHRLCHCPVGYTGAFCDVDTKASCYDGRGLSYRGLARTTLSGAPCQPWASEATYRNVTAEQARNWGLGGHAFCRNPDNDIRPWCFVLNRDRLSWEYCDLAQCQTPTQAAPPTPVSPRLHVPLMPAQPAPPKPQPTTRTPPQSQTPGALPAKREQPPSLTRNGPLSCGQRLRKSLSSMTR
Protocol: Determination of Human Factor XIIa (hFXIIa) inhibition
The Km for the cleavage of the substrate by hFXIIa was determined by standard transformation of the Michaelis-Menten equation, with subsequent inhibition assays performed at substrate Km concentration.

FXa = FXa (Homo sapiens, UniProt P00742); assay: Related protease inhibition: FXa, fluorogenic substrate; type: biochemical; conditions: fluorogenic substrate at Km, 25° C.; H1-H3 = % activity at 40 μM
Chain of FXa (P00742 235-488 limits assumed): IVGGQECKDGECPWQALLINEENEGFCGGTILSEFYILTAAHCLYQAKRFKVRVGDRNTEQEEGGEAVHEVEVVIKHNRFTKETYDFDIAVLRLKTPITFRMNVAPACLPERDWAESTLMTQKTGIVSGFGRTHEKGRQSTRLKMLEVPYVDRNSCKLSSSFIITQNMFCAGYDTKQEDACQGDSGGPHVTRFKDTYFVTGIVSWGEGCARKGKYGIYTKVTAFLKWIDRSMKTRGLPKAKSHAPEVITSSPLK
Chain of FXa (P00742 41-179 partner limits assumed): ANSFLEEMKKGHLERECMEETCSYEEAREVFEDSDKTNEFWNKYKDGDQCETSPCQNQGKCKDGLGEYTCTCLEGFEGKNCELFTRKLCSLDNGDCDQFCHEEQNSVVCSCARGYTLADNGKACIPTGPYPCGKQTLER
Protocol: Human serine protease enzyme Plasma Kallikrein, KLK1, FXa, Plasmin, Thrombin and Trypsin were assayed for enzymatic activity using an appropriate fluorogenic substrate at Km concentration, FXIa at fixed substrate concentration of 100 μM and various concentrations of the test compound.

SMILES	IC50 [1]	IC50 (FXa)
CN1CCc2ccc(N3CCc4c(C(=O)NCC5COC5)nn(-c5cccc(Cl)c5)c4C3=O)cc2C1=O [Example 1339, 1-(3-chlorophenyl)-6-(2-methyl-1-oxo-1,2,3,4-tetrahydroisoquinolin-7-yl)-N-(oxetan-3-ylmethyl)-7-oxo-4,5,6,7-tetrahydro-1H-pyrazolo[3,4-c]pyridine-3-carboxamide]	0.3 to 1 µM	> 40 µM
CN1CCc2ccc(N3CCc4c(C(=O)NCCO)nn(-c5cccc(Cl)c5)c4C3=O)cc2C1=O [Example 1340, 1-(3-chlorophenyl)-N-(2-hydroxyethyl)-6-(2-methyl-1-oxo-1,2,3,4-tetrahydroisoquinolin-7-yl)-7-oxo-4,5,6,7-tetrahydro-1H-pyrazolo[3,4-c]pyridine-3-carboxamide]	0.3 to 1 µM	> 40 µM
CN1CCc2ccc(N3CCc4c(C(=O)NCC(=O)O)nn(-c5cccc(Cl)c5)c4C3=O)cc2C1=O [Example 1341, (1-(3-chlorophenyl)-6-(2-methyl-1-oxo-1,2,3,4-tetrahydroisoquinolin-7-yl)-7-oxo-4,5,6,7-tetrahydro-1H-pyrazolo[3,4-c]pyridine-3-carbonyl)glycine]	0.3 to 1 µM	10 to 40 µM
CN1CCc2ccc(N3CCc4c(C(=O)N5CCCO5)nn(-c5cccc(Cl)c5)c4C3=O)cc2C1=O [Example 1343, 7-(1-(3-chlorophenyl)-3-(isoxazolidine-2-carbonyl)-7-oxo-1,4,5,7-tetrahydro-6H-pyrazolo[3,4-c]pyridin-6-yl)-2-methyl-3,4-dihydroisoquinolin-1(2H)-one]	1 to 3 µM	10 to 40 µM
C[C@@H](CO)NC(=O)c1nn(-c2cccc(Cl)c2)c2c1CCN(c1ccc3c(c1)C(=O)N(C)CC3)C2=O [Example 1344, (S)-1-(3-chlorophenyl)-N-(1-hydroxypropan-2-yl)-6-(2-methyl-1-oxo-1,2,3,4-tetrahydroisoquinolin-7-yl)-7-oxo-4,5,6,7-tetrahydro-1H-pyrazolo[3,4-c]pyridine-3-carboxamide]	0.3 to 1 µM	10 to 40 µM
Cc1cc(CNC(=O)c2nn(-c3cccc(Cl)c3)c3c2CCN(c2ccc4c(c2)C(=O)N(C)[C@H](CO)CO4)C3=O)nn1C [Example 1351, (R)-1-(3-chlorophenyl)-N-((1,5-dimethyl-1H-pyrazol-3-yl)methyl)-6-(3-(hydroxymethyl)-4-methyl-5-oxo-2,3,4,5-tetrahydrobenzo[f][1,4]oxazepin-7-yl)-7-oxo-4,5,6,7-tetrahydro-1H-pyrazolo[3,4-c]pyridine-3-carboxamide]	3 to 10 µM	> 40 µM
CCN1CCOc2ccc(N3CCc4c(C(=O)NCc5cc(C)[nH]n5)nn(-c5cccc(Cl)c5)c4C3=O)cc2C1=O [Example 1352, 1-(3-chlorophenyl)-6-(4-ethyl-5-oxo-2,3,4,5-tetrahydrobenzo[f][1,4]oxazepin-7-yl)-N-((5-methyl-1H-pyrazol-3-yl)methyl)-7-oxo-4,5,6,7-tetrahydro-1H-pyrazolo[3,4-c]pyridine-3-carboxamide]	0.01 to 0.1 µM	3 to 10 µM
CN1CCc2ccc(N3CCc4c(C5=NCCO5)nn(-c5cccc(Cl)c5)c4C3=O)cc2C1=O [Example 1353, 7-(1-(3-Chlorophenyl)-3-(4,5-dihydrooxazol-2-yl)-7-oxo-1,4,5,7-tetrahydro-6H-pyrazolo[3,4-c]pyridin-6-yl)-2-methyl-3,4-dihydroisoquinolin-1 (2H)-one]	0.3 to 1 µM	3 to 10 µM
O=C(NCc1ccn(C2CC2)n1)c1nn(-c2cccc(Cl)c2)c2c1CCN(c1ccc3c(c1)C(=O)N(CCO)CC3)C2=O [Example 1355, 1-(3-chlorophenyl)-N-((1-cyclopropyl-1H-pyrazol-3-yl)methyl)-6-(2-(2-hydroxyethyl)-1-oxo-1,2,3,4-tetrahydroisoquinolin-7-yl)-7-oxo-4,5,6,7-tetrahydro-1H-pyrazolo[3,4-c]pyridine-3-carboxamide]	0.1 to 0.3 µM	> 40 µM
Cc1ccncc1COCc1nn(-c2cccc(Cl)c2)c2c1CCN(c1ccc3c(c1)C(=O)N(C)CC3)C2=O [Example 1356, 7-(1-(3-chlorophenyl)-3-(((4-methylpyridin-3-yl)methoxy)methyl)-7-oxo-1,4,5,7-tetrahydro-6H-pyrazolo[3,4-c]pyridin-6-yl)-2-methyl-3,4-dihydroisoquinolin-1(2H)-one]	1 to 3 µM	3 to 10 µM

Other lines, results leading:

IC50 [1]	IC50 (FXa)	SMILES
0.3 to 1 µM	> 40 µM	CN1CCc2ccc(N3CCc4c(C(=O)NC5COC5)nn(-c5cccc(Cl)c5)c4C3=O)cc2C1=O [Example 1342, 1-(3-chlorophenyl)-6-(2-methyl-1-oxo-1,2,3,4-tetrahydroisoquinolin-7-yl)-N-(oxetan-3-yl)-7-oxo-4,5,6,7-tetrahydro-1H-pyrazolo[3,4-c]pyridine-3-carboxamide]
3 to 10 µM	> 40 µM	CN1CCc2ccc(N3CCc4c(C(=O)NS(C)(=O)=O)nn(-c5cccc(Cl)c5)c4C3=O)cc2C1=O [Example 1345, 1-(3-chlorophenyl)-6-(2-methyl-1-oxo-1,2,3,4-tetrahydroisoquinolin-7-yl)-N-(methylsulfonyl)-7-oxo-4,5,6,7-tetrahydro-1H-pyrazolo[3,4-c]pyridine-3-carboxamide]
0.3 to 1 µM	> 40 µM	CN1CCc2ccc(N3CCc4c(C(=O)NC5CCC5)nn(-c5cccc(Cl)c5)c4C3=O)cc2C1=O [Example 1346, 1-(3-chlorophenyl)-N-cyclobutyl-6-(2-methyl-1-oxo-1,2,3,4-tetrahydroisoquinolin-7-yl)-7-oxo-4,5,6,7-tetrahydro-1H-pyrazolo[3,4-c]pyridine-3-carboxamide]
0.3 to 1 µM	3 to 10 µM	CN1CCc2ccc(N3CCc4c(C(=O)NO)nn(-c5cccc(Cl)c5)c4C3=O)cc2C1=O [Example 1347, 1-(3-chlorophenyl)-N-hydroxy-6-(2-methyl-1-oxo-1,2,3,4-tetrahydroisoquinolin-7-yl)-7-oxo-4,5,6,7-tetrahydro-1H-pyrazolo[3,4-c]pyridine-3-carboxamide]
3 to 10 µM	3 to 10 µM	CCOC(=O)c1nn(-c2cccc(Cl)c2)c2c1CCN(c1cccc(-n3ccccc3=O)c1)C2=O [Example 1350, ethyl 1-(3-chlorophenyl)-7-oxo-6-(3-(2-oxopyridin-1(2H)-yl)phenyl)-4,5,6,7-tetrahydro-1H-pyrazolo[3,4-c]pyridine-3-carboxylate]
1 to 3 µM	10 to 40 µM	CN1CCc2ccc(N3CCc4c(COC5(C)COC5)nn(-c5cccc(Cl)c5)c4C3=O)cc2C1=O [Example 1354, 7-(1-(3-chlorophenyl)-3-(((3-methyloxetan-3-yl)oxy)methyl)-7-oxo-1,4,5,7-tetrahydro-6H-pyrazolo[3,4-c]pyridin-6-yl)-2-methyl-3,4-dihydroisoquinolin-1 (2H)-one]
0.3 to 1 µM	> 40 µM	Cc1cnccc1CNC(=O)c1nn(-c2cccc(Cl)c2)c2c1CCN(c1ccc3c(c1)C(=O)N(CCO)CC3)C2=O [Example 1357, 1-(3-chlorophenyl)-6-(2-(2-hydroxyethyl)-1-oxo-1,2,3,4-tetrahydroisoquinolin-7-yl)-N-((3-methylpyridin-4-yl)methyl)-7-oxo-4,5,6,7-tetrahydro-1H-pyrazolo[3,4-c]pyridine-3-carboxamide]
